Tests used:
Plasmodium falciparum [1] = assay: NOVARTIS: Inhibition of Plasmodium falciparum 3D7 (drug-susceptible) proliferation in erythrocyte-based infection assay; format: functional, organism-based; conditions: Plasmodium falciparum, 3D7
Plasmodium falciparum [2] = assay: NOVARTIS: Inhibition of Plasmodium falciparum W2 (drug-resistant) proliferation in erythrocyte-based infection assay; format: functional, organism-based; conditions: Plasmodium falciparum, W2; read-out: EC50
[3] = NOVARTIS: Cytotoxicity against human hepatocellular carcinoma cell line (Huh7); format: toxicity, cell-based, Huh-7; conditions: Huh7 cells (hepatocellular carcinoma cell line)

SMILES | EC50 (Plasmodium falciparum [1]) [nM] | EC50 (Plasmodium falciparum [2]) [nM] | CC50 [3] [nM]
CCCCOc1ccc(N2C(N)=NC(N)=NC2(C)C)cc1 | 156 | > 1250 | > 10000
CCN(CC)S(=O)(=O)c1ccc(-c2csc(=Nc3cccc4ccccc34)n2C)cc1 | 60.9 | > 1220 | > 10000
Cc1ccccc1/C=C1\SC(=Nc2ccccc2)NC1=O | 1060 | > 12500 | > 100000
CCOC(=O)c1cccc(N2C(N)=NC(N)=NC2(C)C)c1 | 148 | > 1250 | > 10000
CCOC(=O)C(C)Oc1cccc2c(=O)n(CC(=O)Nc3ccc(OC(F)(F)F)cc3)ccc12 (stereo unspecified) | > 1250 | > 1220 | > 10000
O=C(Nc1ccc(-c2cc(-c3ccccc3)nc(-c3ccc(NC(=O)c4cccc([N+](=O)[O-])c4)cc3)n2)cc1)c1cccc([N+](=O)[O-])c1 | 1340 | 1240 | > 10000
CC1=NOC(=O)/C1=C\c1cccs1 | > 1250 | > 1240 | > 10000
CCOc1ccc(N2C(N)=NC(N)=NC2(C)C)cc1 | 79 | > 12500 | > 100000
O=C(Nc1ccc(-c2nnc(-c3ccc(NC(=O)c4ccccc4[N+](=O)[O-])cc3)o2)cc1)c1ccccc1[N+](=O)[O-] | 406 | > 12500 | > 100000
CC1(C)N=C(N)N=C(N)N1c1ccc(I)cc1 | 7.23 | > 12500 | > 100000
COc1ccc(N2C(N)=NC(N)=NC2(C)C)cc1 | 13.8 | > 1250 | > 10000
NCCC(=O)N1CC(c2ccccc2)c2ccccc2C1CN1CCCCC1 (stereo unspecified) | 342 | 231 | 8520
Cc1ccc(C(CCNc2ncnc3c2[nH]c2ccccc23)c2ccco2)cc1 (stereo unspecified) | 736 | 524 | 19400
CC1CC(=O)NN=C1c1ccc(NC(=O)c2ccccc2)cc1 (stereo unspecified) | 305 | 270 | > 10000
Cc1cccc(-c2nc3cc(NC(=O)c4ccc([N+](=O)[O-])o4)ccc3o2)c1 | 1720 | > 12500 | > 100000
CC(C)CNc1nc(NCCCN2CCCC2)ncc1C(=O)NCc1ccccc1 | 664 | > 1230 | > 10000
CC(C)CC(=O)OC1C(N2CCCCC2)c2c(ccc(C=CC(=O)N3CCCCC3)c2O)OC1(C)C (stereo unspecified) | 2600 | > 12300 | > 100000
O=C(C1CC1)n1cc(C(=O)C(F)(F)F)c2ccccc21 | 1370 | > 1220 | > 10000
COC(=O)C1=C(C)N(c2ccc(N(C)C)cc2)C(C)=C(C(=O)OC)C1c1ccc(Br)cc1 | > 1250 | > 1220 | > 10000
Cc1ccc(C)c(N2C(=O)CC(Cc3ccc(Cl)cc3)C2=O)c1 (stereo unspecified) | > 1250 | 1230 | > 10000
CCOC(=O)c1cnc2c(OC)cccc2c1Nc1cc(C)c(Cl)cc1OC | 539 | > 1230 | > 10000
CCCCCN(C(=O)c1ccc2ccccc2c1)C(CC)c1nc2ccccc2c(=O)n1-c1ccccc1OC (stereo unspecified) | 752 | > 1230 | > 10000
COc1cc(OC)cc(-n2nc(C(=O)NC3CCCCC3)c3ccccc3c2=O)c1 | > 1250 | > 1220 | > 10000

SMILES | EC50 (Plasmodium falciparum [1]) [nM] | EC50 (Plasmodium falciparum [2]) [nM] | CC50 [3] [nM]
CCCn1c(-c2cccc(Br)c2)nc2ccccc21 | > 1140 | > 1220 | > 10000
CCOc1cc([N+](=O)[O-])cc(C=Nc2cccc(NC(=O)c3ccco3)c2)c1O | > 1250 | > 1240 | > 10000
O=C(NC1CCN(Cc2ccccc2)CC1)c1cc([N+](=O)[O-])cc([N+](=O)[O-])c1 | 476 | 1220 | > 10000
O=C(Cn1c(-c2ccccc2)c[n+]2ccsc12)c1ccccc1 | 517 | 1220 | > 10000
Cc1ccc(CNC(=O)CSc2nc3ccsc3c(=O)n2CCCCCC(=O)NCCc2ccccc2)cc1 | 4430 | 2720 | > 100000
COc1ccc(C(=O)Nc2ccc3nsnc3c2)cc1OC | > 1250 | > 1250 | > 10000
COc1ccc(-c2nc3cc(Cc4ccc5[nH]c(-c6ccc(OC)cc6)nc5c4)ccc3[nH]2)cc1 | 234 | 775 | 6220
O=C(CN1C(=O)C2C3CCC(C3)C2C1=O)N1CCCC(c2ncncc2-c2ccncc2)C1 (stereo unspecified) | 246 | > 1250 | > 10000
C/C=C(\Cl)C1=CC(=O)[C@]23C[C@H]2[C@@]2(C)CO[C@@]1(O)[C@@]3(O)O2 | 205 | > 1250 | > 10000
Cc1cc(CNC(=O)CC2C(=O)NCCN2Cc2ccccc2C(F)(F)F)nn1C (stereo unspecified) | > 27.4 | > 1250 | > 10000
CN(C)c1ccc(N2C(N)=NC(N)=NC2(C)C)cc1 | 18.8 | > 1250 | > 10000
COc1cc2c(cc1OC)C(CCCCCl)=NC(C)(C)C2 | 343 | > 12500 | > 100000
O=C(C=Cc1ccccc1Cl)Nc1ccc(Oc2ccc3ccccc3c2Cl)c(Cl)c1 | 1030 | > 12500 | > 100000
CC1=C(C(=O)OC2CCCCC2)C(c2ccc(Cl)c(Cl)c2)C2=C(CCCC2=O)N1 (stereo unspecified) | 735 | > 12500 | > 100000
COc1cccc(-c2nc(CS(=O)(=O)CC(=O)N3CC(C)CC(C)C3)c(C)o2)c1 (stereo unspecified) | 136 | > 1250 | > 10000
CCCCCN(C(=O)c1ccc(C(C)(C)C)cc1)C(CC)c1nc2ccccc2c(=O)n1-c1ccccc1OC (stereo unspecified) | > 117 | > 1250 | > 10000
CCOC(=O)c1c(NC(=O)CSc2nnc(CNC(=O)c3cccs3)n2-c2cccc(Cl)c2)sc2c1CCCC2 | > 1140 | > 1240 | > 10000
CC(C)N(CC(=O)Nc1cc(C(C)(C)C)nn1-c1ccc(Cl)cc1)C(=O)c1cccc2ccccc12 | 1210 | > 1240 | > 10000
O=C(O)c1nsnc1C(O)C(O)C(=O)O (stereo unspecified) | > 1410 | > 1240 | > 10000
Cc1nc(Cl)cc(N2CCc3c(nc(N4CC(C)OC(C)C4)[nH]c3=O)C2)n1 (stereo unspecified) | 176 | > 1250 | > 10000
CCC(c1nc2cc(Cl)ccc2c(=O)n1CC)N(CC)C(=O)c1ccc2ccccc2c1 (stereo unspecified) | > 1220 | 1230 | > 10000
O=C1C(Nc2ccc(O)cc2)=CC(=NS(=O)(=O)c2cccs2)c2ccccc21 | 590 | 297 | 2430
CC[n+]1c(/C=C/C=C2\N(C)c3ccccc3C2(C)C)n(-c2ccccc2)c2ccc(Cl)cc21 | > 1500 | > 1220 | > 10000

SMILES | EC50 (Plasmodium falciparum [1]) [nM] | EC50 (Plasmodium falciparum [2]) [nM] | CC50 [3] [nM]
Oc1c2c(nc3cc(-c4ccccc4)nn13)CCCC2 | 1930 | > 12500 | > 100000
Cc1ccc(N2C(N)=NC(N)=NC2(C)C)c(C)c1 | 105 | > 12500 | > 100000
Cc1cc(C)cc(OCC(=O)N2N=C(C(C)C)CC2(O)C(F)(F)F)c1 (stereo unspecified) | 1750 | > 1220 | > 10000
COc1cc(/C=C2\SC(c3ccc(C)cc3)=NC2=O)cc(OC)c1OC | > 1250 | > 1220 | > 10000
O=C1C2C(C(=O)N1Cc1ccccc1)C1(c3ccccc3)C(=O)C2(c2ccccc2)C(c2ccccc2)=C1c1ccccc1 (stereo unspecified) | 822 | > 12500 | > 100000
Cc1ccc(N2C(=O)C3C(C2=O)C2(c4ccccc4)C(=O)C3(c3ccccc3)C(c3ccccc3)=C2c2ccccc2)cc1[N+](=O)[O-] (stereo unspecified) | 822 | > 12500 | > 100000
CC1=C2C(=O)c3ccccc3C2NC(=O)N1 (stereo unspecified) | > 352 | > 12500 | > 100000
COc1cccc(NC(=O)N(Cc2ccccc2)C(C)c2nc3ccccc3c(=O)n2-c2cc(C)ccc2OC)c1 (stereo unspecified) | 1240 | 1220 | > 10000
COC(=O)c1cn([C@H]2C[C@@H](C(=O)NCc3ccc(OC)cc3)N(Cc3ccsc3)C2)nn1 | > 1710 | 200 | > 7380
Cc1cccc(-n2nc3c(c2NC(=O)c2ccc4c(c2)OCO4)CS(=O)(=O)C3)c1C | 124 | > 1250 | > 10000
Cc1oc2c(cc(NS(=O)(=O)c3ccc(F)cc3)c3ccccc32)c1C(=O)OCc1ccccc1 | > 1430 | > 12500 | > 100000
CCCc1ccc(OCc2nc(-c3ccc(NC(=O)c4cccs4)cc3)no2)cc1 | 825 | > 12500 | > 100000
CN1CCCN(C(=O)C2CC23CCN(Cc2ccc(N(C)c4ccccc4)cc2)CC3)CC1 (stereo unspecified) | 1320 | 2580 | 20800
CC(C)(C)C(=O)Nc1ccc(C23CC4CC(CC(c5ccccc5)(C4)C2)C3)cc1 | 716 | > 12500 | > 100000
Cc1ccc(-c2nnc(N3CCOCC3)c3ccccc23)cc1S(=O)(=O)N1CCN(C)CC1 | > 1250 | > 1220 | > 10000
O=C(Cc1cccs1)NC1CCN(CC(O)CN(Cc2ccccc2)S(=O)(=O)c2ccccc2)C1 (stereo unspecified) | 181 | > 1250 | > 10000
COc1ccc(C2(Cc3ccccc3)NC(=O)NC2=O)cc1 (stereo unspecified) | 1340 | > 1220 | > 10000
Cc1ccc2c(c1)N=C(c1ccc([N+](=O)[O-])cc1)CO2 | > 1300 | > 12500 | > 100000
O=C(O)c1cc([N+](=O)[O-])ccc1Oc1cncc(Cl)c1 | 33.3 | > 1250 | > 10000
Oc1ccc(-c2cncc(NCc3cccc(O)c3)c2)cc1 | 626 | 1250 | > 10000
CCCCOc1ccc(C(=O)NCCOc2cccc(OC)c2)cc1 | 288 | > 12500 | > 100000

From ChEMBL document CHEMBL1156829 (Proc Natl Acad Sci U S A, 2008)
